Where a name gives a salt, the structure may show the parent alone.
Test system: apomorphine-induced climbing
Assay: climbing mice assay: block of apomorphine-induced climbing (antipsychotic activity)
Type: in vivo, CK-1 male mice
Conditions: Mus musculus, ip, read-out: Antipsychotic Activity ED50
Protocol: The subject CK-1 male mice (23-27 grams) are […] under standard laboratory conditions. The mice are individually placed in wire mesh stick cages (4"×4"10") and are allowed one hour for adaptation and exploration of the new environment.
For evaluation of climbing, 3 readings are taken at 10, 20, and 30 minutes after apomorphine administration according to the following scale:
2 paws on wall (rearing)
4 paws on the wall (full climbing)
Mice consistently climbing before the injections of apomorphine will be discarded.
With full-developed apomorphine climbing, the animals are hanging onto the cage walls, rather motionless, over long periods of time. By contrast, climbs due to mere motor stimulation usually only last a few seconds.
The climbing scores are individually totaled (maximal score: 6 per mouse over 3 readings) and the total score of the control group (vehicle intraperitoneally-apomorphine subcutaneously) is set 100%.

SMILES	ED50 [mg/kg]
O=C(CCCN1CCC(O)(c2ccc(Cl)cc2)CC1)c1ccc(F)cc1 [Haloperidol, reference compound]	0.11

Same assay, conditions: Mus musculus, ip; mice; intraperitoneal 30 minutes prior to apomorphine 1.5 mg/kg s.c.; climbing readings at 10, 20, 30 minutes; linear regression; read-out: Antipsychotic Activity ED50

SMILES	ED50 [mg/kg]
COc1ccccc1N1CCN(C/C=C\CN2C(=O)c3ccc(Cl)cc3C2=O)CC1 [Z-1-N-(4-Chlorophthalimido)-4-[4-(2-methoxyphenyl)-1-piperazinyl]-2-butene dihydrochloride hemihydrate]	15.4
COc1ccccc1N1CCN(C/C=C/CN2C(=O)c3ccccc3C2=O)CC1 [E-1-(N-Phthalimido)-4-[4-(2-methoxyphenyl)-1-piperazinyl]-2-butene hydrochloride hemihydrate]	7.3
COc1ccccc1N1CCN(C/C=C\CN2C(=O)c3ccccc3C2=O)CC1 [Z-1-(N-Phthalimido)-4-[4-(2-methoxyphenyl)-4-piperazinyl)]-2-butene dihydrochloride]	10.3
CCN1CCCC1CNC(=O)c1cc(S(N)(=O)=O)ccc1OC (stereo not drawn) [Sulpiride, reference compound]	4.5
COc1ccccc1N1CCN(C/C=C\CN2C(=O)CSC2=O)CC1 [Z-1-(3-Thiazolidine-2,4-dione)-4-[4-(2-methoxyphenyl)-1-piperazinyl]-2-butene dihydrochloride]	19.8

From patent publication US5334715A, “1-piperazinyl-2-butenes and -2-butynes” (Hoechst-Roussel Pharmaceuticals Inc., priority 1993, dated 1994)
